Source: US20230129359A1, “MUSCARINIC RECEPTOR 4 ANTAGONISTS AND METHODS OF USE” (Neurocrine Biosciences, Inc., priority 2020, published 2023)

Molecular target: T1, human M4 receptor (Homo sapiens, UniProt P08173)
T1 construct: expressed in transfected cells; host or cells: CHO cells
T1 sequence (P08173 1-479): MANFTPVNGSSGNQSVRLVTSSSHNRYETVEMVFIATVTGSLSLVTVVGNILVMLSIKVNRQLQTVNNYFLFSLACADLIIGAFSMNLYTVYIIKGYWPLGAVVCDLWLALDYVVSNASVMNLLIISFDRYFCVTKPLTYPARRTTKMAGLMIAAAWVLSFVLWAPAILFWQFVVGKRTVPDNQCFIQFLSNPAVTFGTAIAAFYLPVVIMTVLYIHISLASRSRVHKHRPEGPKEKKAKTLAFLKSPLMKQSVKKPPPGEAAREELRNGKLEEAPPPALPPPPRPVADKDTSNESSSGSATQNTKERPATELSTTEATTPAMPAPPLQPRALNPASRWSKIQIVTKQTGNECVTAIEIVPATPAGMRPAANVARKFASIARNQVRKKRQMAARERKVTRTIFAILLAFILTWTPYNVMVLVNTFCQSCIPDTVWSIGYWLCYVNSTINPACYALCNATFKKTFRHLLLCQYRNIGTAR
Assay: Radioligand ([3H]N-methylscopolamine) binding assay, membranes from CHO cells expressing human M4 receptor
Conditions: Ki against human M4 receptor; membranes from CHO cells; tritiated N-methylscopolamine 1.5 nM; read-out: K
Outline: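 Ki values derive from displacement of tritiated N-methylscopolamine (1.5 nM) from human M4 receptor in CHO membranes. Membranes, radioligand and twelve-point compound series were incubated together at 37 °C for 90 minutes in pH 7.4 HEPES/NaCl/MgCl2/EDTA buffer. Rapid vacuum filtration over polyethylenimine-pretreated filters was followed by radioactivity counting.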

SMILES: C[C@@H]1CN(c2ncc(C(F)(F)F)cn2)CCN1C(=O)NC1CC2(C1)CN(Cc1ccc(F)cc1)C2 [Compound 266, (2R)-N-{2-[(4-fluorophenyl)methyl]-2-azaspiro[3.3]heptan-6-yl}-2-methyl-4-[5-(trifluoromethyl)pyrimidin-2-yl]piperazine-1-carboxamide]
- Ki: 100 to 1000 nM

SMILES: C[C@@H]1CN(c2cnc(C(F)(F)F)cn2)C[C@H](C)N1C(=O)NC1CC2(C1)CN(Cc1ccc(F)cc1)C2 [Compound 267, (2R,6S)-N-{2-[(4-fluorophenyl)methyl]-2-azaspiro[3.3]heptan-6-yl}-2,6-dimethyl-4-[5-(trifluoromethyl)pyrazin-2-yl]piperazine-1-carboxamide]
- Ki: 10 to 100 nM

SMILES: C[C@@H]1CN(c2cnc(C(F)(F)F)cn2)[C@@H](C)CN1C(=O)NC1CC2(C1)CN(Cc1ccc(F)cc1)C2 [Compound 269, (2R,5S)-N-{2-[(4-fluorophenyl)methyl]-2-azaspiro[3.3]heptan-6-yl}-2,5-dimethyl-4-[5-(trifluoromethyl)pyrazin-2-yl]piperazine-1-carboxamide]
- Ki: 10 to 100 nM

SMILES: C[C@@H]1CN(c2cnc(C(F)(F)F)cn2)CCN1C(=O)NC1CC2(C1)CN(Cc1ccc(F)cc1)C2 [Compound 270, (2R)-N-{2-[(4-fluorophenyl)methyl]-2-azaspiro[3.3]heptan-6-yl}-2-methyl-4-[5-(trifluoromethyl)pyrazin-2-yl]piperazine-1-carboxamide]
- Ki: 10 to 100 nM

SMILES: [2H]c1c([2H])c([2H])c(CN2CC3(CC(NC(=O)N4[C@H](C)CN(c5ncc(C(F)(F)F)cn5)C[C@@H]4C)C3)C2)c([2H])c1[2H] [Compound 273, (2R,6S)-N-{2-[(^2H5)benzyl]-2-azaspiro[3.3]heptan-6-yl}-2,6-dimethyl-4-[5-(trifluoromethyl)pyrimidin-2-yl]piperazine-1-carboxamide]
- Ki: < 10 nM

SMILES: [2H]c1c([2H])c([2H])c(C([2H])N2CC3(CC(NC(=O)N4[C@H](C)CN(c5ncc(C(F)(F)F)cn5)C[C@@H]4C)C3)C2)c([2H])c1[2H] (stereo partly drawn) [Compound 274, (2R,6S)-2,6-dimethyl-N-{2-[(^2H5)phenyl(^2H1)methyl]-2-azaspiro[3.3]heptan-6-yl}-4-[5-(trifluoromethyl)pyrimidin-2-yl]piperazine-1-carboxamide]
- Ki: < 10 nM

SMILES: [2H]c1c([2H])c([2H])c(C([2H])([2H])N2CC3(CC(NC(=O)N4[C@H](C)CN(c5ncc(C(F)(F)F)cn5)C[C@@H]4C)C3)C2)c([2H])c1[2H] [Compound 275, (2R,6S)-2,6-dimethyl-N-{2-[(^2H5)phenyl(^2H2)methyl]-2-azaspiro[3.3]heptan-6-yl}-4-[5-(trifluoromethyl)pyrimidin-2-yl]piperazine-1-carboxamide]
- Ki: < 10 nM

SMILES: C[C@@H]1CN(c2ncc(C(F)(F)F)cc2F)C[C@H](C)N1C(=O)OC1CC2(C1)CN(Cc1ccccc1)C2 [Compound 277, 2-benzyl-2-azaspiro[3.3]heptan-6-yl (2R,6S)-4-[3-fluoro-5-(trifluoromethyl)pyridin-2-yl]-2,6-dimethylpiperazine-1-carboxylate]
- Ki: < 10 nM

SMILES: C[C@@H]1CN(c2ncc(Cl)cn2)C[C@H](C)N1C(=O)OC1CC2(C1)CN(Cc1ccccc1)C2 [Compound 278, 2-benzyl-2-azaspiro[3.3]heptan-6-yl (2R,6S)-4-(5-chloropyrimidin-2-yl)-2,6-dimethylpiperazine-1-carboxylate]
- Ki: 10 to 100 nM

SMILES: Cc1nc(N2C[C@@H](C)N(C(=O)OC3CC4(C3)CN(Cc3ccccc3)C4)[C@@H](C)C2)ncc1Cl [Compound 279, 2-benzyl-2-azaspiro[3.3]heptan-6-yl (2R,6S)-4-(5-chloro-4-methylpyrimidin-2-yl)-2,6-dimethylpiperazine-1-carboxylate]
- Ki: 10 to 100 nM

SMILES: CCOc1ccc(N2C[C@@H](C)N(C(=O)NC3CC4(C3)CN(Cc3ccccc3)C4)[C@@H](C)C2)cc1 [Compound 284, (2R,6S)-N-{2-benzyl-2-azaspiro[3.3]heptan-6-yl}-4-(4-ethoxyphenyl)-2,6-dimethylpiperazine-1-carboxamide]
- Ki: 100 to 1000 nM

SMILES: C[C@@H]1CN(c2ncc(C(F)(F)F)cn2)C[C@H](C)N1C(=O)NC1CC2(C1)CN(Cc1cccnc1Cl)C2 [Compound 291, (2R,6S)-N-{2-[(2-chloropyridin-3-yl)methyl]-2-azaspiro[3.3]heptan-6-yl}-2,6-dimethyl-4-[5-(trifluoromethyl)pyrimidin-2-yl]piperazine-1-carboxamide]
- Ki: 100 to 1000 nM

SMILES: C[C@@H]1CN(c2ncc(C(F)(F)F)cn2)C[C@H](C)N1C(=O)NC1CC2(C1)CN(Cc1ccc3occc3c1)C2 [Compound 298, (2R,6S)-N-[2-(1-benzofuran-5-ylmethyl)-2-azaspiro[3.3]heptan-6-yl]-2,6-dimethyl-4-[5-(trifluoromethyl)pyrimidin-2-yl]piperazine-1-carboxamide]
- Ki: < 10 nM

SMILES: C[C@@H]1CN(c2ncc(C(F)(F)F)cn2)C[C@H](C)N1C(=O)NC1CC2(C1)CN(Cc1cccnc1)C2 [Compound 303, (2R,6S)-2,6-dimethyl-N-[2-(pyridin-3-ylmethyl)-2-azaspiro[3.3]heptan-6-yl]-4-[5-(trifluoromethyl)pyrimidin-2-yl]piperazine-1-carboxamide]
- Ki: 10 to 100 nM

SMILES: COc1ccc(CN2CC3(CC(NC(=O)N4[C@H](C)CN(c5ncc(C(F)(F)F)cn5)C[C@@H]4C)C3)C2)cn1 [Compound 305, (2R,6S)-N-{2-[(6-methoxypyridin-3-yl)methyl]-2-azaspiro[3.3]heptan-6-yl}-2,6-dimethyl-4-[5-(trifluoromethyl)pyrimidin-2-yl]piperazine-1-carboxamide]
- Ki: 10 to 100 nM

SMILES: C[C@@H]1CN(c2ncc(C(F)(F)F)cn2)C[C@H](C)N1C(=O)NC1CC2(C1)CN(Cc1ccc(Cl)nc1)C2 [Compound 307, (2R,6S)-N-{2-[(6-chloropyridin-3-yl)methyl]-2-azaspiro[3.3]heptan-6-yl}-2,6-dimethyl-4-[5-(trifluoromethyl)pyrimidin-2-yl]piperazine-1-carboxamide]
- Ki: 10 to 100 nM

SMILES: C[C@@H]1CN(c2ncc(C(F)(F)F)cn2)C[C@H](C)N1C(=O)NC1CC2(C1)CN(Cc1ccc[nH]1)C2 [Compound 309, (2R,6S)-2,6-dimethyl-N-[2-(1H-pyrrol-2-ylmethyl)-2-azaspiro[3.3]heptan-6-yl]-4-[5-(trifluoromethyl)pyrimidin-2-yl]piperazine-1-carboxamide]
- Ki: 10 to 100 nM

SMILES: C[C@@H]1CN(c2ncc(C(F)(F)F)cn2)C[C@H](C)N1C(=O)NC1CC2(C1)CN(CCc1ccccc1)C2 [Compound 311, (2R,6S)-2,6-dimethyl-N-[2-(2-phenylethyl)-2-azaspiro[3.3]heptan-6-yl]-4-[5-(trifluoromethyl)pyrimidin-2-yl]piperazine-1-carboxamide]
- Ki: 100 to 1000 nM

SMILES: C[C@@H]1CN(c2ncc(C(F)(F)F)cn2)C[C@H](C)N1C(=O)NC1CC2(C1)CN(CCCCc1ccccc1)C2 [Compound 312, (2R,6S)-2,6-dimethyl-N-[2-(4-phenylbutyl)-2-azaspiro[3.3]heptan-6-yl]-4-[5-(trifluoromethyl)pyrimidin-2-yl]piperazine-1-carboxamide]
- Ki: 100 to 1000 nM

SMILES: C[C@@H]1CN(c2ncc(C(F)(F)F)cn2)C[C@H](C)N1C(=O)NC1CC2(C1)CN(CC1=CCCCC1)C2 [Compound 313, (2R,6S)-N-[2-(cyclohex-1-en-1-ylmethyl)-2-azaspiro[3.3]heptan-6-yl]-2,6-dimethyl-4-[5-(trifluoromethyl)pyrimidin-2-yl]piperazine-1-carboxamide]
- Ki: 10 to 100 nM

SMILES: C[C@@H]1CN(c2ncc(C(F)(F)F)cn2)C[C@H](C)N1C(=O)NC1CC2(C1)CN(Cc1ccc([N+](=O)[O-])cc1)C2 [Compound 314, (2R,6S)-2,6-dimethyl-N-{2-[(4-nitrophenyl)methyl]-2-azaspiro[3.3]heptan-6-yl}-4-[5-(trifluoromethyl)pyrimidin-2-yl]piperazine-1-carboxamide]
- Ki: 10 to 100 nM

SMILES: CC(C)c1ccc(CN2CC3(CC(NC(=O)N4[C@H](C)CN(c5ncc(C(F)(F)F)cn5)C[C@@H]4C)C3)C2)cc1 [Compound 316, (2R,6S)-2,6-dimethyl-N-(2-{[4-(propan-2-yl)phenyl]methyl}-2-azaspiro[3.3]heptan-6-yl)-4-[5-(trifluroomethyl)pyrimidin-2-yl]piperazine-1-carboxamide]
- Ki: 10 to 100 nM

SMILES: C[C@@H]1CN(c2ncc(C(F)(F)F)cn2)C[C@H](C)N1C(=O)NC1CC2(C1)CN(Cc1ccncc1)C2 [Compound 317, (2R,6S)-2,6-dimethyl-N-[2-(pyridin-4-ylmethyl)-2-azaspiro[3.3]heptan-6-yl]-4-[5-(trifluoromethyl)pyrimidin-2-yl]piperazine-1-carboxamide]
- Ki: 100 to 1000 nM

SMILES: C[C@@H]1CN(c2ncc(C(F)(F)F)cn2)C[C@H](C)N1C(=O)NC1CC2(C1)CN(Cc1ccc(O)cc1)C2 [Compound 319, (2R,6S)-N-{2-[(4-hydroxyphenyl)methyl]-2-azaspiro[3.3]heptan-6-yl}-2,6-dimethyl-4-[5-(trifluoromethyl)pyrimidin-2-yl]piperazine-1-carboxamide]
- Ki: < 10 nM

SMILES: COC(=O)c1ccc(CN2CC3(CC(NC(=O)N4[C@H](C)CN(c5ncc(C(F)(F)F)cn5)C[C@@H]4C)C3)C2)cc1 [Compound 320, methyl 4-[(6-{[(2R,6S)-2,6-dimethyl-4-[5-(trifluoromethyl)pyrimidin-2-yl]piperazine-1-carbonyl]amino}-2-azaspiro[3.3]heptan-2-yl)methyl]benzoate]
- Ki: 100 to 1000 nM
